# Measured values reported in patent publication US9969709B2, “Guanidinobenzoic acid ester compound” (Takeda Pharmaceutical Company Limited, priority 2013, dated 2018).
# pIC50: −log10 of the molar value.
# Key:
# [1] = molecular target: T1, human recombinant trypsin (rh-trypsin) (Homo sapiens, UniProt P07477); assay: Trypsin inhibitory activity, human recombinant trypsin, BZiPAR fluorescent substrate; type: biochemical; conditions: 30 min at room temperature, read-out: r-h Trypsin inhibitory activity (IC50)
# T1 construct: purchased Wako Pure Chemical Industries, Ltd. 206-17171
# Method: (§1) 1. Confirmation of Trypsin Inhibitory Activity in Humans and Mice In the experiment, human recombinant trypsin (rh-trypsin; manufactured by Wako Pure Chemical Industries, Ltd.), cat. #206-17171) and mouse trypsin (m-trypsin; purified from the mouse small intestine contents by the present inventors) were used. The method for purifying m-trypsin from the contents of the mouse small intestine is shown below. The compound was dissolved in dimethyl sulfoxide (DMSO), and diluted to an arbitrary concentration (A). A was 100-fold diluted with a buffer (0.1 M Tris (pH 8.0), 0.15 M NaCl, 10 mM CaCl2, 0.05% Brij35) (B). The rh-trypsin was diluted with a buffer to 0.088 μg/mL, and for the m-trypsin, the purified fraction liquid was 50-fold diluted with the buffer (C). […] A BZiPAR solution (Rhodamine Reference Substrate) which is substrate for the trypsin enzyme was diluted with the buffer to […] (D). 5 μL of B, 5 μL of C, and 10 μL of D were added to a 384-well plate, and incubated at room temperature for 30 minutes. Fluorescent signals were detected at a maximum excitement (Ex)/fluorescent wavelength (Em)=497 nm/520 nm using a Tecan Safire Fluorometer. […] Based on the obtained inhibitory rates, the trypsin inhibitory activities (IC50 values, nM) were calculated from the non-linear regression.
# [2] = system: T2, mouse trypsin (m-trypsin); assay: Trypsin inhibitory activity, mouse trypsin purified from small intestine contents, BZiPAR fluorescent substrate; type: biochemical; conditions: 30 min at room temperature
# T2 construct: mouse trypsin (m-trypsin)
# Text: 1. Confirmation of Trypsin Inhibitory Activity in Humans and Mice
# In the experiment, human recombinant trypsin (rh-trypsin; manufactured by Wako Pure Chemical Industries, Ltd.), cat. #206-17171) and mouse trypsin (m-trypsin; purified from the mouse small intestine contents by the present inventors) were used. The method for purifying m-trypsin from the contents of the mouse small intestine is shown below.
# The small intestine contents and the gastrointestinal tract obtained from 10 mice were homogenized in phosphate buffer saline (PBS) using Polytron, and subjected to centrifugation several times at 15,000×g for 10 minutes. The supernatant was mixed at 4° C. for 16 hours with a Benzamidine Sepharose 4 Fast Flow Resin (GE Healthcare: #17-5123-10). After washing the resin with PBS, m-trypsin was eluted with a glycine buffer (pH 3.0) to carry out purification. It was confirmed by Western blot analysis that the obtained purified fraction was recognized as an Anti-mouse Trypsin Antibody (Santa Cruz Biotechnology, Inc.: sc-67388). The method for measuring the trypsin inhibiting activity is shown below.
# as §1, with “The” for “1. Confirmation of Trypsin Inhibitory Activity in Humans and Mice In the experiment, human recombinant trypsin (rh-trypsin; manufactured by Wako Pure Chemical Industries, Ltd.), cat. #206-17171) and mouse trypsin (m-trypsin; purified from the mouse small intestine contents by the present inventors) were used. The method for purifying m-trypsin from the contents of the mouse small intestine is shown below. The”
# ICR mice = assay: Test of increase in fecal protein concentration using mice; type: in vivo, mouse; conditions: 5 mg/kg oral, male ICR mice, feces collected 3 to 9 hours after feeding started, control group = 1; for response vs control in vivo at 5 mg/kg: Mus musculus, po, 9 h, read-out: Fecal protein, Folds (vs. control)
# Method: 2. Test of Increase in Fecal Protein Concentration Using Mice
# For the experiment, 6-week old male ICR mice were used. The experiment was carried out in five mice per group. After fasting the mice for 15 hours, the control group was forcibly orally administered with a 0.5% methyl cellulose (MC) solution, and the test drug group was forcibly orally administered (5 mg/kg) with a solution or suspension obtained by dissolving or suspending the compound in the 0.5% MC solution. The fasting was stopped immediately thereafter, free feeding (CE-2) was started, and then the feces were collected from after 3 hours to after 9 hours, and weighed. All of the obtained feces were suspended in 6 mL of distilled water, and centrifuged at 1,940×g for 10 minutes. The protein concentration in the obtained supernatant was measured by a Bradford method, and the amount of the protein in 1 g of feces was calculated by dividing the protein concentration in the feces by the total weight of feces. Further, the efficacy was investigated from the ratio to the control group. For the compounds that were evaluated multiple times, the average values were calculated.
# The results of the activities with an increase in Fecal Protein, assuming a value for the control group as 1, are shown in Table 2.
SMILES,pIC50 [1],pIC50 [2],"Fecal protein, Folds (vs. control) (ICR mice)",response vs control in vivo at 5 mg/kg (ICR mice)
N=C(N)Nc1ccc(C(=O)Oc2ccc3c(C(=O)N(CC(=O)O)Cc4cccc(CC(=O)O)c4)cccc3c2)cc1 [Example 42],9.70,9.85,,204%
N=C(N)Nc1ccc(C(=O)Oc2ccc3c(c2)CCC3CC(=O)N(CC(=O)O)Cc2ccc3sc(C(=O)O)cc3c2)cc1 (stereo not drawn) [Example 51],9.47,9.42,,166%
N=C(N)Nc1ccc(C(=O)Oc2ccc3cc(C(=O)N(CCC(=O)O)Cc4csc(C(=O)O)c4)ccc3c2)cc1 [Example 56],9.46,9.23,,145%
C[C@H](C(=O)O)N(Cc1csc(C(=O)O)c1)C(=O)c1cccc2cc(OC(=O)c3ccc(NC(=N)N)cc3)ccc12 [Example 18],9.54,9.32,,218%
N=C(N)Nc1ccc(C(=O)Oc2ccc3c(C(=O)N(CC(=O)O)[C@@H](Cc4ccccc4)C(=O)O)cccc3c2)cc1 [Example 40],9.54,9.57,,189%
N=C(N)Nc1ccc(C(=O)Oc2ccc3c(C(=O)N(CC(=O)O)Cc4ccc5sc(C(=O)O)cc5c4)csc3c2)cc1 [Example 32],9.82,9.85,,190%
N=C(N)Nc1ccc(C(=O)Oc2ccc3c(c2)CCC(C(=O)N(CC(=O)O)Cc2cccc(C(=O)O)c2)C3)cc1 (stereo not drawn) [Example 58],9.17,9.13,,218%
N=C(N)Nc1ccc(C(=O)Oc2ccc3c(C(=O)N(CC(=O)O)Cc4ccc5sc(C(=O)O)cc5c4)cccc3c2)cc1 [Example 34],9.68,9.77,,207%
N=C(N)Nc1ccc(C(=O)Oc2ccc3c(C(=O)N(CCC(=O)O)Cc4csc(C(=O)O)c4)cccc3c2)cc1 [Example 43],9.77,9.72,,198%
N=C(N)Nc1ccc(C(=O)Oc2ccc3cc(C(=O)N(CC(=O)O)[C@@H](Cc4ccccc4)C(=O)O)ccc3c2)cc1 [Example 39],9.74,9.89,,108%
N=C(N)Nc1ccc(C(=O)Oc2ccc3cc(C(=O)N(CC(=O)O)Cc4csc(C(=O)O)c4)sc3c2)cc1 [Example 59],9.15,9.06,,164%
N=C(N)Nc1ccc(C(=O)Oc2ccc3c(C(=O)N(CC(=O)O)Cc4cccc(C(=O)O)c4)cccc3c2)cc1 [Example 15],10.00,9.74,,261%
N=C(N)Nc1ccc(C(=O)Oc2ccc3cc(C(=O)N(CC(=O)O)Cc4ccc5sc(C(=O)O)cc5c4)ccc3c2)cc1 [Example 33],9.74,9.80,,139%
N=C(N)Nc1ccc(C(=O)Oc2ccc3c(c2)CCC3CC(=O)N(CCC(=O)O)Cc2csc(C(=O)O)c2)cc1 (stereo not drawn) [Example 50],9.55,9.37,,156%

# Further lines, with some results ahead:
pIC50 [1],pIC50 [2],SMILES,"Fecal protein, Folds (vs. control) (ICR mice)",response vs control in vivo at 5 mg/kg (ICR mice)
9.37,9.24,"C[C@H](C(=O)O)N(Cc1csc(C(=O)O)c1)C(=O)CC1CCCc2cc(OC(=O)c3ccc(NC(=N)N)cc3)ccc21 (single isomer, unassigned) [Example 8, 4-({({(1R)-6-[(4-carbamimidamidobenzoyl)oxy]-1,2,3,4-tetrahydronaphthalen-1-yl}acetyl) [(1R)-1-carboxyethyl]amino}methyl)thiophene-2-carboxylic acid or an epimer at position 1 of the 1,2,3,4-tetrahydronaphthalene]",1.90,
9.55,9.46,N=C(N)Nc1ccc(C(=O)Oc2ccc3c(c2)CCCC3CC(=O)N(CC(=O)O)Cc2ccc3sc(C(=O)O)cc3c2)cc1 (stereo not drawn) [Example 25],,135%
9.59,9.64,N=C(N)Nc1ccc(C(=O)Oc2ccc3c(c2)CCCC3CC(=O)N(CC(=O)O)Cc2csc(CC(=O)O)c2)cc1 (stereo not drawn) [Example 38],,191%
9.70,9.70,N=C(N)Nc1ccc(C(=O)Oc2ccc3c(c2)CCCC3CC(=O)N(Cc2ccccc2)CC(CC(=O)O)CC(=O)O)cc1 (stereo not drawn) [Example 44],,172%
9.54,9.70,"Cl.N=C(N)Nc1ccc(C(=O)Oc2ccc3c(c2)CCCC3CC(=O)N(CC(=O)O)Cc2cccc(C(=O)O)c2)cc1 (single isomer, unassigned) [Example 6, 3-{[({(1R)-6-[(4-carbamimidamidobenzoyl)oxy]-1,2,3,4-tetrahydronaphthalen-1-yl}acetyl)(carboxymethyl)amino]methyl}benzoic acid or an enantiomer thereof]",1.84,
9.52,9.59,"C[C@H](C(=O)O)N(Cc1csc(C(=O)O)c1)C(=O)CC1CCCc2cc(OC(=O)c3ccc(NC(=N)N)cc3)ccc21 (single isomer, unassigned) [Example 7, 4-({({(1R)-6-[(4-carbamimidamidobenzoyl)oxy]-1,2,3,4-tetrahydronaphthalen-1-yl}acetyl) [(1R)-1-carboxyethyl]amino}methyl)thiophene-2-carboxylic acid or an epimer at position 1 of the 1,2,3,4-tetrahydronaphthalene]",,183%
9.46,9.33,N=C(N)Nc1ccc(C(=O)Oc2ccc3c(c2)CCCC3CC(=O)N(CCC(=O)O)Cc2csc(C(=O)O)c2)cc1 (stereo not drawn) [Example 55],,230%
9.60,9.55,N=C(N)Nc1ccc(C(=O)Oc2ccc3c(c2)CCCC3CC(=O)N2Cc3cc(C(=O)O)ccc3C[C@@H]2C(=O)O)cc1 (stereo partly drawn) [Example 30],,168%
9.49,9.46,N=C(N)Nc1ccc(C(=O)Oc2ccc3c(c2)CCCC3CC(=O)N(CC(=O)O)Cc2csc(C(=O)O)c2)cc1 (stereo not drawn) [Example 27],,198%
9.27,9.22,N=C(N)Nc1ccc(C(=O)Oc2ccc3c(c2)CCC3CC(=O)N[C@@H](Cc2ccc(C(=O)O)cc2)C(=O)O)cc1 (stereo partly drawn) [Example 53],,164%
9.48,9.47,N=C(N)Nc1ccc(C(=O)Oc2ccc3c(c2)CCCC3CC(=O)N(CC(=O)O)Cc2ccc(CC(=O)O)cc2)cc1 (stereo not drawn) [Example 26],,170%
9.62,9.74,N=C(N)Nc1ccc(C(=O)Oc2ccc3cc(C(=O)N[C@@H](Cc4ccc(C(=O)O)cc4)C(=O)O)ccc3c2)cc1 [Example 37],,174%
9.59,9.55,N=C(N)Nc1ccc(C(=O)Oc2ccc3c(c2)CCCC3CC(=O)N[C@@H](Cc2ccc(C(=O)O)cc2)C(=O)O)cc1 (stereo partly drawn) [Example 36],,190%
